These results are taken from patent US20040209956A1 (priority 2003, published 2004).

Holding throughout (type): physicochemical
Data set [1] is described as follows: Solubility of Form II in acetonitrile/ethanol 3A mixtures. Particulars: equilibrated nineteen days; for Solubility, 70/30 ACN/EtOH 3A wt. % S-[2-[(1-Iminoethyl)amino]ethyl]-2-methyl-L-cysteine: 70/30 v/v acetonitrile/ethanol 3A; for Solubility, 90/10 ACN/EtOH 3A wt. % S-[2-[(1-Iminoethyl)amino]ethyl]-2-methyl-L-cysteine: 90/10 v/v acetonitrile/ethanol 3A. An excerpt:
Excess solids were equilibrated in these solvents at the appropriate temperature (in a shaker bath) for nineteen days. Supernatant samples were withdrawn and analyzed by HPLC for concentration of S-[2-[(1-Iminoethyl)amino]ethyl]-2-methyl-L-cysteine.

A short description of data set [2]: Moisture sorption of Form II by DVS moisture balance. Particulars: 25° C. An excerpt:
However, the solids re-hydrate equally easily when exposed to R.H. greater than 10%. […] The behavior of form II during this experiment was typical of a highly crystalline channel hydrate/solvate.

A short description of data set [3]: Solubility experiments in acetonitrile/water with and without excess maleic acid. The note with it: 90/10 acetonitrile/water with excess maleic acid; nineteen days at 5° C.; slurry in single liquid phase, solids form II. The method, then: These vials were then placed in a shaker bath at 5° C. After four days of equilibration when the vials were observed, it was discovered that the system had turned from a suspension of solids in a single liquid phase to a biphasic liquid with no suspended solids. Both layers from each of the three vials were analyzed for water content (through Karl-Fischer analysis) and concentration of the compound. […] It is worth pointing out though that the exact conditions leading to measured concentrations in the top layer could only be truly established when the partitioning of excess maleic acid is established between the two layers. The bottom layer (rich in water) would most likely be under-saturated since no excess solids remained. This possibility is substantiated by the solubility data on the bottom layer, where the concentrations are found to be very similar across all the experiments. While the vial at 70/30 acetonitrile/water with excess maleic acid remained biphasic even after nineteen days, the 70/30 acetonitrile/water vial without any excess maleic acid after five days had some very large crystals floating in a solution that still seemed biphasic. […] These crystals were used to obtain crystallography data. After nineteen days of equilibration at 5° C., the 90/10 acetonitrile/water vial with excess maleic acid had turned back into a slurry of solids in a single liquid phase.

In the case of “S-[2-[(1-Iminoethyl)amino]ethyl]-2-methyl-L-cysteine maleate crystalline salt Form II”, the “Solubility, 70/30 ACN/EtOH 3A wt. % S-[2-[(1-Iminoethyl)amino]ethyl]-2-methyl-L-cysteine” value in data set [1] (5 ° C.) was 0.679 wt. %; in data set [1] (25 ° C.) it was 0.737 wt. %. For the same substance, the entries for the “Solubility, 90/10 ACN/EtOH 3A wt. % S-[2-[(1-Iminoethyl)amino]ethyl]-2-methyl-L-cysteine” value in data set [1] (5 ° C.) and in data set [1] (25 ° C.) were 0.169 wt. % and 0.135 wt. %, respectively. Besides, in data set [2] (DVS moisture balance), the “Cycling between sorption and de-sorption cycles” value is “did not show any hysteresis or loss of crystallinity”. The Moisture gain in data set [2] (between 10 and 70% R.H.) is about 2.5%; in data set [2] (between 70 and 90% R.H.) it was about 4.5%. Moreover, the “Concentration in the solution phase, S-[2-[(1-Iminoethyl)amino]ethyl]-2-methyl-L-cysteine” value in data set [3] turned out to be 0.613 wt %.
